According to patent US11331289B2, “Antimicrobial composition” (priority 2017, dated 2022):

Experiments:
[1] = test system: MRSA 16110; test: Time-killing curve, inoculum 5.10^5 CFU/ml (MIC 1 μg/ml); type: cell-based, Staphylococcus aureus
Description: (§1) The objective of this study is to assess in vitro the time-killing curves of oxyclozanide against four strains of Methicillin-Resistant Staphylococcus from dogs.
(§2) Two Methicillin-Resistant Staphylococcus aureus (MRSA) and two Methicillin-Resistant Staphylococcus pseudintermedius (MRSP) isolated from the clinics have been tested.
(§3) The assessment of time-killing curves has been realized by a broth macrodilution method (Mueller-Hinton II Broth).
(§4) Oxyclozanide is diluted in (DMSO) into sterile tubes in order to obtain the following concentrations from 800 to 6.25 μg/ml. Those concentrations and stock standard solution are then diluted (1/10) in Mueller-Hinton II Broth in order to obtain the following concentrations from […] (See Table 2).
(§5) Each operation is performed under sterile conditions. Each working standard solution (10*the final active ingredient concentration) is distributed in tubes (1 ml, for a final volume of 10 ml after addition of 9 ml of inoculum). One tube without active ingredient is used as growth control (Concentration=0).
(§6) Bacterial isolates are sub-cultured from one cryobead on Columbia agar supplemented with 5% of blood. Pure cultures are incubated during 18-24 hours at 37° C. Three to five isolated colonies of similar appearance are selected from a previous culture and transferred into tubes containing 9 ml of Mueller-Hinton II Broth. The broth is incubated during 12-18 hours at 37° C. 0.5 to 1 ml of this broth is inoculated to another Mueller-Hinton II Broth 9 ml tube which is incubated during 3 to 4 hours at 37° C. to reach the exponential growth phase. The bacterial inoculum grown exponential phase is suspended to an optical density of McFarland standard scale 0.5 equivalent to a bacterial density of 10^8 CFU/ml and then adjusted to a concentration of about 5.10^5 CFU/ml as indicated by the guideline CLSI M26-A and to a second inoculum tested: 10^6 CFU/ml.
(§7) 9 ml of bacterial inoculum grown to exponential phase is added to 1 ml of active ingredient (or Mueller Hinton II Broth for the growth control). Tubes are incubated at 35° C. during 24 hours.
(§8) At times 0, 2, 4, 6 and 24 hours, 100 μl of broth of each tube is sampled and diluted in microplates:
(§9) Each well is re-cultured by streaking 10 μl on Columbia agar supplemented with 5% of blood. Plates are incubated at 37° C. during 18-24 hours incubation. Thus, residual bacterial concentrations are determined (CFU/ml). Results are expressed in log10 values of CFU/ml over-time in broth. Due to the procedure used, the minimal bacterial concentration that can be assessed is 10^2 CFU/ml.

[2] = test system: MRSP 16127; test: Time-killing curve, inoculum 5.10^5 CFU/ml (MIC 0.25 μg/ml); type: cell-based, Staphylococcus pseudintermedius
Description: as §1, §2, §3, §4, §5, §6, §7, §8, §9

[3] = test system: Methicillin-Resistant Staphylococcus pseudintermedius (MRSP) 16125, 16127; test: Oxyclo MIC of MRSP strains; type: cell-based
[4] = test system: Staphylococcus aureus; test: Time-killing curves, conclusion over strains; type: cell-based
Description: (§10) The time-killing curve is used to determine the bactericidal or bacteriostatic activity of the antibimicrobial substances. Time-killing curves of Oxyclozanide against canine isolates of Staphylococcus aureus and Staphylococcus pseudintermedius were obtained using broth macrodilution method. After contact of different fixed amounts of Oxyclozanide with an inoculum, viable bacteria are counted immediately after contact and after 1, 3, 6 and 24 hours. Counting is performed on agar medium without antimicrobial substance.
(§11) Results are analyzed by plotting log10 CFU/ml versus time for each tested concentration. Bactericidal activity as defined by 99.9% killing of the inoculum is determined from time-killing curves by noting the presence of a ≥3 log10 decrease in CFU/ml.
(§12) Bactericidal activity as defined by 99.9% killing of the inoculum is determined from time-killing curves by noting the presence of a ≥3 log10 decrease in CFU/ml.

[5] = test system: Staphylococcus pseudintermedius; test: Time-killing curves, conclusion over strains; type: cell-based
Description: as §10, §11, §12

- MIC ([3]; MRSP 16125): 0.5 µg/mL
- MIC ([3]; MRSP 16127): 0.25 µg/mL
SMILES: O=C(Nc1cc(Cl)cc(Cl)c1O)c1c(O)c(Cl)cc(Cl)c1Cl [Oxyclozanide]
- Counting results ([1]; 1 MIC, 0 h): 4.100E+05 CFU/ml
- Counting results ([1]; 1 MIC, 2 h): 9.300E+04 CFU/ml
- Counting results ([1]; 1 MIC, 4 h): 6.500E+04 CFU/ml
- Counting results ([1]; 1 MIC, 6 h): 1.100E+05 CFU/ml
- Counting results ([1]; 1 MIC, 24 h): 6.100E+05 CFU/ml
- Counting results ([1]; 2 MIC, 0 h): 4.100E+05 CFU/ml
- Counting results ([1]; 2 MIC, 2 h): 3.300E+03 CFU/ml
- Counting results ([1]; 2 MIC, 4 h): 1.800E+03 CFU/ml
- Counting results ([1]; 2 MIC, 6 h): 4.000E+02 CFU/ml
- Counting results ([1]; 2 MIC, 24 h): 1.000E+02 CFU/ml
- Counting results ([1]; 4 MIC, 0 h): 4.100E+05 CFU/ml
- Counting results ([1]; 4 MIC, 2 h): 3.000E+02 CFU/ml
- Counting results ([1]; 4 MIC, 4 h): 1.000E+02 CFU/ml
- Counting results ([1]; 4 MIC, 6 h): 1.000E+02 CFU/ml
- Counting results ([1]; 4 MIC, 24 h): 1.000E+02 CFU/ml
- Counting results ([1]; 8 MIC, 0 h): 4.100E+05 CFU/ml
- Counting results ([1]; 8 MIC, 2 h): 2.000E+02 CFU/ml
- Counting results ([1]; 8 MIC, 4 h): 1.000E+02 CFU/ml
- Counting results ([1]; 8 MIC, 6 h): 1.000E+02 CFU/ml
- Counting results ([1]; 8 MIC, 24 h): 1.000E+02 CFU/ml
- Counting results ([1]; 16 MIC, 0 h): 4.100E+05 CFU/ml
- Counting results ([1]; 16 MIC, 2 h): 1.000E+02 CFU/ml
- Counting results ([1]; 16 MIC, 4 h): 1.000E+02 CFU/ml
- Counting results ([1]; 16 MIC, 6 h): 1.000E+02 CFU/ml
- Counting results ([1]; 16 MIC, 24 h): 1.000E+02 CFU/ml
- Time to obtain bactericidal effect at 4 MIC ([1]; 16110/5.10^5 CFU/ml, >=3 log10 decrease in CFU): 2 h
- Counting results ([1]; ¼ MIC, 0 h): 4.100E+05 CFU/ml
- Counting results ([1]; ¼ MIC, 2 h): 1.400E+06 CFU/ml
- Counting results ([1]; ¼ MIC, 4 h): 9.500E+07 CFU/ml
- Counting results ([1]; ¼ MIC, 6 h): 1.600E+08 CFU/ml
- Counting results ([1]; ¼ MIC, 24 h): 1.100E+09 CFU/ml
- Counting results ([1]; ½ MIC, 0 h): 4.100E+05 CFU/ml
- Counting results ([1]; ½ MIC, 2 h): 6.300E+05 CFU/ml
- Counting results ([1]; ½ MIC, 4 h): 9.900E+06 CFU/ml
- Counting results ([1]; ½ MIC, 6 h): 3.100E+07 CFU/ml
- Counting results ([1]; ½ MIC, 24 h): 1.900E+08 CFU/ml
- Counting results ([2]; 1 MIC, 0 h): 3.600E+05 CFU/ml
- Counting results ([2]; 1 MIC, 2 h): 2.300E+05 CFU/ml
- Counting results ([2]; 1 MIC, 4 h): 1.900E+06 CFU/ml
- Counting results ([2]; 1 MIC, 6 h): 4.600E+06 CFU/ml
- Counting results ([2]; 1 MIC, 24 h): 8.100E+08 CFU/ml
- Counting results ([2]; 2 MIC, 0 h): 3.600E+05 CFU/ml
- Counting results ([2]; 2 MIC, 2 h): 2.000E+05 CFU/ml
- Counting results ([2]; 2 MIC, 4 h): 2.400E+05 CFU/ml
- Counting results ([2]; 2 MIC, 6 h): 2.400E+05 CFU/ml
- Counting results ([2]; 2 MIC, 24 h): 6.600E+05 CFU/ml
- Counting results ([2]; 4 MIC, 0 h): 3.600E+05 CFU/ml
- Counting results ([2]; 4 MIC, 2 h): 1.400E+04 CFU/ml
- Counting results ([2]; 4 MIC, 4 h): 4.400E+03 CFU/ml
- Counting results ([2]; 4 MIC, 6 h): 3.500E+03 CFU/ml
- Counting results ([2]; 4 MIC, 24 h): 1.300E+03 CFU/ml
- Counting results ([2]; 8 MIC, 0 h): 3.600E+05 CFU/ml
- Counting results ([2]; 8 MIC, 2 h): 1.600E+03 CFU/ml
- Counting results ([2]; 8 MIC, 4 h): 4.000E+02 CFU/ml
- Counting results ([2]; 8 MIC, 6 h): 1.000E+02 CFU/ml
- Counting results ([2]; 8 MIC, 24 h): 1.000E+02 CFU/ml
- Counting results ([2]; 16 MIC, 0 h): 3.600E+05 CFU/ml
- Counting results ([2]; 16 MIC, 2 h): 3.000E+02 CFU/ml
- Counting results ([2]; 16 MIC, 4 h): 1.000E+02 CFU/ml
- Counting results ([2]; 16 MIC, 6 h): 1.000E+02 CFU/ml
- Counting results ([2]; 16 MIC, 24 h): 1.000E+02 CFU/ml
- Time to obtain bactericidal effect at 4 MIC ([2]; 16127/5.10^5 CFU/ml, >=3 log10 decrease in CFU): 6 to 24 h
- Counting results ([2]; ¼ MIC, 0 h): 3.600E+05 CFU/ml
- Counting results ([2]; ¼ MIC, 2 h): 3.900E+05 CFU/ml
- Counting results ([2]; ¼ MIC, 4 h): 5.900E+06 CFU/ml
- Counting results ([2]; ¼ MIC, 6 h): 3.400E+07 CFU/ml
- Counting results ([2]; ¼ MIC, 24 h): 2.900E+10 CFU/ml
- Counting results ([2]; ½ MIC, 0 h): 3.600E+05 CFU/ml
- Counting results ([2]; ½ MIC, 2 h): 3.300E+05 CFU/ml
- Counting results ([2]; ½ MIC, 4 h): 2.700E+06 CFU/ml
- Counting results ([2]; ½ MIC, 6 h): 2.400E+07 CFU/ml
- Counting results ([2]; ½ MIC, 24 h): 2.900E+10 CFU/ml
- Pharmacodynamic profile [4]: concentration-dependant
- Contact time at which bactericidal effect (≥3 log10 decrease in CFU/ml) is observed ([4]; concentration of 4 μg/ml): 24 hours
- Contact time at which bactericidal effect (≥3 log10 decrease in CFU/ml) is observed ([4]; concentration of 8 μg/ml): 6 to 24 hours
- Pharmacodynamic profile [5]: concentration-dependant
- Contact time at which bactericidal effect (≥3 log10 decrease in CFU/ml) is observed ([5]; concentration of 4 μg/ml): 24 hours
- Contact time at which bactericidal effect (≥3 log10 decrease in CFU/ml) is observed ([5]; concentration of 8 μg/ml): 6 to 24 hours
